Test results taken from patent publication US20250145665A1, “MACROCYCLIC PEPTIDES USEFUL AS MODULATORS OF TNF ALPHA” (Bristol-Myers Squibb Company, priority 2023, published 2025).
Starred links: 1 amine or outer side, 2 acyl side, 3 side chain; linkers in the order of their positions; H or OH if unused. Positions of bridges follow the written chain, without caps; N, C: chain ends. Non-standard residues stand in square brackets, D forms with d. Residues, ends and D or L forms follow the SMILES beside them. *: point of attachment. X40 = O=C(O)C1CCCCC1C(=O)Nc1ccc(-c2ccc(C[C@H](N[*:1])C(=O)[*:2])cc2)cc1; dArg(ω-(2S)-2,3-diOHpropyl) = N=C(NCCC[C@@H](N)C(=O)O)NC[C@H](O)CO; Bip(4'-NH) = O=C([C@H](Cc1ccc(-c2ccc(N[*:3])cc2)cc1)N[*:1])[*:2]; Indazole3carbonyl(1-CH2COOH) = O=C(O)Cn1nc(C(=O)*)c2ccccc21; Bip(4'-COOH) = N[C@@H](Cc1ccc(-c2ccc(C(=O)O)cc2)cc1)C(=O)O; Bip(4'-NHAc) = CC(=O)Nc1ccc(-c2ccc(C[C@H](N)C(=O)O)cc2)cc1; X33 = N=C(NCCC[C@@H](N[*:1])C(=O)[*:2])NCc1cccc(CC(=O)O)c1; X36 = N=C(NCCC[C@@H](N[*:1])C(=O)[*:2])NCc1cccc(C(=O)O)c1; Phe(4-(3-Py)) = N[C@@H](Cc1ccc(-c2cccnc2)cc1)C(=O)O; X6 = N=C(NCCCCC(N)=O)NCCC[C@@H](N[*:1])C(=O)[*:2]; Ala(morpholin-4-yl) = N[C@@H](CN1CCOCC1)C(=O)O; Benzoyl(3-OCH2COOH) = O=C(O)COc1cccc(C(=O)*)c1; Phe(3-CONH2) = NC(=O)c1cccc(C[C@H](N)C(=O)O)c1; Bip = N[C@@H](Cc1ccc(-c2ccccc2)cc1)C(=O)O; Phe(3-OMe) = COc1cccc(C[C@H](N)C(=O)O)c1; 3Pal = N[C@@H](Cc1cccnc1)C(=O)O; Cha = N[C@@H](CC1CCCCC1)C(=O)O; Chg = N[C@H](C(=O)O)C1CCCCC1; Tle = CC(C)(C)[C@H](N)C(=O)O; Dab = NCC[C@H](N)C(=O)O; Sar = CNCC(=O)O

Target: TNFα (Homo sapiens, UniProt P01375)
Assay: TNF-Induced HEK-Blue Assay
Format: cell-based
Details: not given

TNFα, sequence (P01375 77-233 limits assumed): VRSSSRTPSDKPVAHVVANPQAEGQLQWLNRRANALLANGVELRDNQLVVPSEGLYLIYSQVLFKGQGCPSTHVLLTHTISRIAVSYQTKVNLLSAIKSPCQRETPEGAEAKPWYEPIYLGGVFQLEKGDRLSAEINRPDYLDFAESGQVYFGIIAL

SMILES | IC50
CC(C)C[C@@H]1NC(=O)[C@H](CCCNC(=N)N)NC(=O)[C@H](C(C)C)NC(=O)[C@@H]2CCCN2C(=O)[C@H](C(C)C)NC(=O)[C@@H](CCCNC(=N)NCc2cccc(CC(=O)O)c2)NC(=O)[C@H](CC(=O)O)NC(=O)[C@@H]2CCCN2C(=O)CN(C)C(=O)[C@H](Cc2ccc(-c3ccc(NC(=O)c4nn(CC(=O)O)c5ccccc45)cc3)cc2)NC(=O)[C@H](Cc2ccc(-c3ccccc3)cc2)NC(=O)[C@H](CN2CCOCC2)NC(=O)CSC[C@@H](C(=O)NCC(N)=O)NC1=O [Example 511] ({CH2CO}-[Ala(morpholin-4-yl)][Bip][Bip(4'-NH)](Indazole3carbonyl(1-CH2COOH))[Sar]PD[X33]VPVRLCG-NH2; thioether N-13) | 50 to 200 nM
CC(C)C[C@@H]1NC(=O)[C@H](CCCNC(=N)N)NC(=O)[C@H](C(C)C)NC(=O)[C@@H]2CCCN2C(=O)[C@H](C(C)C)NC(=O)[C@@H](CCCNC(=N)NCCCCC(N)=O)NC(=O)[C@H](CC(=O)O)NC(=O)[C@@H]2CCCN2C(=O)CN(C)C(=O)[C@H](Cc2ccc(-c3ccc(NC(=O)c4nn(CC(=O)O)c5ccccc45)cc3)cc2)NC(=O)[C@H](Cc2ccc(-c3ccccc3)cc2)NC(=O)[C@H](CN2CCOCC2)NC(=O)CSC[C@@H](C(=O)NCC(N)=O)NC1=O [Example 391] ({CH2CO}-[Ala(morpholin-4-yl)][Bip][Bip(4'-NH)](Indazole3carbonyl(1-CH2COOH))[Sar]PD[X6]VPVRLCG-NH2; thioether N-13) | 50 to 200 nM

Same assay, conditions: HEK-Blue-CD40L cells, NF-kB-driven secreted alkaline phosphatase reporter; TNFα 0.5 ng/ml; 18 h; read-out: TNF induced HEK-Blue assay IC50 value

IC50 | SMILES
50 to 200 nM | CC(=O)Nc1ccc(-c2ccc(C[C@@H]3NC(=O)[C@H](Cc4ccc(-c5ccc(C(=O)O)cc5)cc4)NC(=O)[C@H](CC4CCCCC4)NC(=O)CSC[C@@H](C(=O)N[C@@H](CCN)C(N)=O)NC(=O)[C@H](CC(C)C)NC(=O)[C@H](Cc4ccc(O)cc4)NC(=O)[C@H](C(C)C)NC(=O)[C@@H]4CCCN4C(=O)[C@H](C(C)C)NC(=O)[C@@H](CCCNC(=N)N)NC(=O)[C@H](CC(=O)O)NC(=O)[C@@H]4CCCN4C(=O)CN(C)C3=O)cc2)cc1 [Example 243] ({CH2CO}-[Cha][Bip(4'-COOH)][Bip(4'-NHAc)][Sar]PD[dR]VPVYLC[Dab]-NH2; thioether N-13)
50 to 200 nM | CC(=O)Nc1ccc(-c2ccc(C[C@@H]3NC(=O)[C@H](Cc4ccc(-c5ccccc5)cc4)NC(=O)[C@H](CC4CCCCC4)NC(=O)CSC[C@@H](C(=O)NCC(N)=O)NC(=O)[C@H](CC(C)C)NC(=O)[C@H](Cc4ccc(O)cc4)NC(=O)[C@H](C4CCCCC4)NC(=O)[C@@H]4CCCN4C(=O)[C@H](C(C)C)NC(=O)[C@@H](CCCNC(=N)N)NC(=O)[C@H](CC(=O)O)NC(=O)[C@@H]4CCCN4C(=O)CN(C)C3=O)cc2)cc1 [Example 310] ({CH2CO}-[Cha][Bip][Bip(4'-NHAc)][Sar]PD[dR]VP[Chg]YLCG-NH2; thioether N-13)
200 to 2000 nM | CC(C)C[C@@H]1NC(=O)[C@H](CCCNC(=N)N)NC(=O)[C@H](C(C)C)NC(=O)[C@@H]2CCCN2C(=O)[C@H](C(C)C)NC(=O)[C@H](CCCNC(=N)N)NC(=O)[C@H](CC(=O)O)NC(=O)[C@@H]2CCCN2C(=O)CN(C)C(=O)[C@H](Cc2ccc(-c3ccccc3)cc2)NC(=O)[C@H](Cc2ccc(-c3ccccc3)cc2)NC(=O)[C@H](Cc2c[nH]c3ccccc23)NC(=O)CSC[C@@H](C(=O)NCC(N)=O)NC1=O [Example 5] ({CH2CO}-W[Bip][Bip][Sar]PDRVPVRLCG-NH2; thioether N-13)
50 to 200 nM | CC[C@H](C)[C@@H]1NC(=O)[C@@H](CCCNC(=N)N)NC(=O)[C@H](CC(=O)O)NC(=O)[C@H](Cc2cnc[nH]2)NC(=O)CN(C)C(=O)[C@H](Cc2ccc(-c3ccc(NC(=O)C4CCCCC4C(=O)O)cc3)cc2)NC(=O)[C@H](Cc2ccc(-c3ccccc3)cc2)NC(=O)[C@H](CC2CCCCC2)NC(=O)CSC[C@@H](C(=O)NCC(N)=O)NC(=O)[C@H](CC(C)C)NC(=O)[C@H](Cc2cnc[nH]2)NC(=O)[C@H](C(C)C)NC(=O)[C@@H]2CCCN2C1=O (stereo partly drawn) [Example 318] ({CH2CO}-[Cha][Bip][X40][Sar]HD[dR]IPVHLCG-NH2; thioether N-13)
200 to 2000 nM | CC(C)C[C@@H]1NC(=O)[C@H](CCCNC(=N)N)NC(=O)[C@H](C(C)C)NC(=O)[C@@H]2CCCN2C(=O)[C@H](C(C)C)NC(=O)[C@@H](CCCNC(=N)NCc2cccc(C(=O)O)c2)NC(=O)[C@H](CC(=O)O)NC(=O)[C@@H]2CCCN2C(=O)CN(C)C(=O)[C@H](Cc2ccc(-c3ccc(NC(=O)c4cccc(OCC(=O)O)c4)cc3)cc2)NC(=O)[C@H](Cc2ccc(-c3ccccc3)cc2)NC(=O)[C@H](CN2CCOCC2)NC(=O)CSC[C@@H](C(=O)NCC(N)=O)NC1=O [Example 544] ({CH2CO}-[Ala(morpholin-4-yl)][Bip][Bip(4'-NH)](Benzoyl(3-OCH2COOH))[Sar]PD[X36]VPVRLCG-NH2; thioether N-13)
200 to 2000 nM | CC(C)[C@@H]1NC(=O)[C@H](CCCNC(=N)N)NC(=O)[C@H](C(C)C)NC(=O)[C@@H]2CCCN2C(=O)[C@H](C(C)C)NC(=O)[C@H](CCCNC(=N)N)NC(=O)[C@H](CC(=O)O)NC(=O)[C@@H]2CCCN2C(=O)CN(C)C(=O)[C@H](Cc2ccc(-c3cccnc3)cc2)NC(=O)[C@H](Cc2ccc(-c3ccccc3)cc2)NC(=O)[C@H](CN2CCOCC2)NC(=O)CSC[C@@H](C(=O)NCC(N)=O)NC1=O [Example 92] ({CH2CO}-[Ala(morpholin-4-yl)][Bip][Phe(4-(3-Py))][Sar]PDRVPVRVCG-NH2; thioether N-13)
200 to 2000 nM | CC(C)C[C@@H]1NC(=O)[C@H](Cc2ccc(O)cc2)NC(=O)[C@H](C(C)C)NC(=O)[C@@H]2CCCN2C(=O)[C@H](C(C)C)NC(=O)[C@@H](CCCNC(=N)N)NC(=O)[C@H](CC(=O)O)NC(=O)[C@@H]2CCCN2C(=O)CN(C)C(=O)[C@H](Cc2ccc(-c3ccccc3)cc2)NC(=O)[C@H](Cc2ccc(-c3ccccc3)cc2)NC(=O)[C@H](CN2CCOCC2)NC(=O)CSC[C@@H](C(=O)NCC(N)=O)NC1=O [Example 77] ({CH2CO}-[Ala(morpholin-4-yl)][Bip][Bip][Sar]PD[dR]VPVYLCG-NH2; thioether N-13)
200 to 2000 nM | COc1cccc(C[C@@H]2NC(=O)[C@H](C(C)C)NC(=O)[C@@H]3CCCN3C(=O)[C@H](C(C)C)NC(=O)[C@H](CCCNC(=N)N)NC(=O)[C@H](CC(=O)O)NC(=O)[C@@H]3CCCN3C(=O)CN(C)C(=O)[C@H](Cc3ccc(-c4ccccc4)cc3)NC(=O)[C@H](Cc3ccc(-c4ccccc4)cc3)NC(=O)[C@H](Cc3ccccc3)NC(=O)CSC[C@@H](C(=O)NCC(N)=O)NC(=O)[C@H](CC(C)C)NC2=O)c1 [Example 63] ({CH2CO}-F[Bip][Bip][Sar]PDRVPV[Phe(3-OMe)]LCG-NH2; thioether N-13)
50 to 200 nM | CC(C)C[C@@H]1NC(=O)[C@H](Cc2cccc(C(N)=O)c2)NC(=O)[C@H](C(C)C)NC(=O)[C@@H]2CCCN2C(=O)[C@H](C(C)C)NC(=O)[C@@H](CCCNC(=N)NC[C@H](O)CO)NC(=O)[C@H](CC(=O)O)NC(=O)[C@H](Cc2ccc(O)cc2)NC(=O)CN(C)C(=O)[C@H](Cc2ccc(-c3ccc(NC(=O)c4cccc(OCC(=O)O)c4)cc3)cc2)NC(=O)[C@H](Cc2ccc(-c3ccccc3)cc2)NC(=O)[C@H](CN2CCOCC2)NC(=O)CSC[C@@H](C(=O)NCC(N)=O)NC1=O [Example 550] ({CH2CO}-[Ala(morpholin-4-yl)][Bip][Bip(4'-NH)](Benzoyl(3-OCH2COOH))[Sar]YD[dArg(ω-(2S)-2,3-diOHpropyl)]VPV[Phe(3-CONH2)]LCG-NH2; thioether N-13)
200 to 2000 nM | CC(C)C[C@@H]1NC(=O)[C@H](Cc2ccc(O)cc2)NC(=O)[C@H](C(C)C)NC(=O)[C@@H]2CCCN2C(=O)[C@H](Cc2cccnc2)NC(=O)[C@@H](CCCNC(=N)N)NC(=O)[C@H](CC(=O)O)NC(=O)[C@H](Cc2ccc(O)cc2)NC(=O)CN(C)C(=O)[C@H](Cc2ccc(-c3ccccc3)cc2)NC(=O)[C@H](Cc2ccc(-c3ccccc3)cc2)NC(=O)[C@H](CN2CCOCC2)NC(=O)CSC[C@@H](C(=O)NCC(N)=O)NC1=O [Example 118] ({CH2CO}-[Ala(morpholin-4-yl)][Bip][Bip][Sar]YD[dR][3Pal]PVYLCG-NH2; thioether N-13)
50 to 200 nM | CC[C@H](C)[C@@H]1NC(=O)[C@@H](CCCNC(=N)N)NC(=O)[C@H](CC(=O)O)NC(=O)[C@H](Cc2cnc[nH]2)NC(=O)CN(C)C(=O)[C@H](Cc2ccc(-c3ccc(NC(C)=O)cc3)cc2)NC(=O)[C@H](Cc2ccc(-c3ccc(C(=O)O)cc3)cc2)NC(=O)[C@H](CC2CCCCC2)NC(=O)CSC[C@@H](C(=O)NCC(N)=O)NC(=O)[C@H](CC(C)C)NC(=O)[C@H](Cc2cccc(OC)c2)NC(=O)[C@H](C(C)C)NC(=O)[C@@H]2CCCN2C1=O [Example 282] ({CH2CO}-[Cha][Bip(4'-COOH)][Bip(4'-NHAc)][Sar]HD[dR]IPV[Phe(3-OMe)]LCG-NH2; thioether N-13)
50 to 200 nM | CC(=O)Nc1ccc(-c2ccc(C[C@@H]3NC(=O)[C@H](Cc4ccc(-c5ccccc5)cc4)NC(=O)[C@H](CN4CCOCC4)NC(=O)CSC[C@@H](C(=O)NCC(N)=O)NC(=O)[C@H](CC(C)C)NC(=O)[C@H](Cc4cccc(C(N)=O)c4)NC(=O)[C@H](C(C)C)NC(=O)[C@@H]4CCCN4C(=O)[C@H](C(C)C)NC(=O)[C@@H](CCCNC(=N)N)NC(=O)[C@H](CC(=O)O)NC(=O)[C@H](Cc4ccccc4)NC(=O)CN(C)C3=O)cc2)cc1 [Example 455] ({CH2CO}-[Ala(morpholin-4-yl)][Bip][Bip(4'-NHAc)][Sar]FD[dR]VPV[Phe(3-CONH2)]LCG-NH2; thioether N-13)
< 50 nM | CC[C@H](C)[C@@H]1NC(=O)[C@@H]2CCCN2C(=O)[C@H]([C@@H](C)CC)NC(=O)[C@@H](CCCNC(=N)N)NC(=O)[C@H](CC(=O)O)NC(=O)[C@H](Cc2ccc(O)cc2)NC(=O)CN(C)C(=O)[C@H](Cc2ccc(-c3ccc(NC(C)=O)cc3)cc2)NC(=O)[C@H](Cc2ccc(-c3ccccc3)cc2)NC(=O)[C@H](C(C)(C)C)NC(=O)CSC[C@@H](C(=O)NCC(N)=O)NC(=O)[C@H](CC(C)C)NC(=O)[C@H](Cc2ccccc2)NC1=O [Example 296] ({CH2CO}-[Tle][Bip][Bip(4'-NHAc)][Sar]YD[dR]IPIFLCG-NH2; thioether N-13)
